# Measured values taken from ChEMBL document CHEMBL4321854, “Discovery of a First-in-Class Mitogen-Activated Protein Kinase Kinase 1/2 Degrader” (J Med Chem, 2019).
# Activity calls are given as the source filed them. No cut-off for these calls is given here.
# What was measured:
# [1] = target: T1, von Hippel-Lindau disease tumor suppressor/Dual specificity mitogen-activated protein kinase kinase 2/Dual specificity mitogen-activated protein kinase kinase 1 (Homo sapiens) (UniProt P36507+Q02750+P40337); assay: Protac activity against VHL/MEK1/2 in human SK-MEL-28 cells harboring with BRAF V600E variant assessed as reduction in phosphorylation of MEK at S218/222 residues after 24 hrs by Western blot analysis; type: cell-based
# T1 sequence (P36507 whole entry, looked up): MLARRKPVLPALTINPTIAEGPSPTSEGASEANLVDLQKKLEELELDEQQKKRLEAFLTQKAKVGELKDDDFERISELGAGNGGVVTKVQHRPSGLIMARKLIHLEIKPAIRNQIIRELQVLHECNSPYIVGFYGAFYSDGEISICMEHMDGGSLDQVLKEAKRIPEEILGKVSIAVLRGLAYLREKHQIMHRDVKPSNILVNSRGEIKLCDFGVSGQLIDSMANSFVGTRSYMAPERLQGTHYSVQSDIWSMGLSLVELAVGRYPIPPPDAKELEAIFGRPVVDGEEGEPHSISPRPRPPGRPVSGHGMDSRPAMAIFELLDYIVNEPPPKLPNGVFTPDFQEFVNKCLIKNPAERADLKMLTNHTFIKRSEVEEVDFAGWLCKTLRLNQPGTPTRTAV
# T1 sequence (P40337 whole entry, looked up): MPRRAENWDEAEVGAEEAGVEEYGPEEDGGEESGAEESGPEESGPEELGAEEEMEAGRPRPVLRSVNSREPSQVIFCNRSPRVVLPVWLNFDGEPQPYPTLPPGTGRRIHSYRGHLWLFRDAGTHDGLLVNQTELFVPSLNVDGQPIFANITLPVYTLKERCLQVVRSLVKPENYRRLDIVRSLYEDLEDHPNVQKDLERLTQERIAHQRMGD
# T1 sequence (Q02750 whole entry, looked up): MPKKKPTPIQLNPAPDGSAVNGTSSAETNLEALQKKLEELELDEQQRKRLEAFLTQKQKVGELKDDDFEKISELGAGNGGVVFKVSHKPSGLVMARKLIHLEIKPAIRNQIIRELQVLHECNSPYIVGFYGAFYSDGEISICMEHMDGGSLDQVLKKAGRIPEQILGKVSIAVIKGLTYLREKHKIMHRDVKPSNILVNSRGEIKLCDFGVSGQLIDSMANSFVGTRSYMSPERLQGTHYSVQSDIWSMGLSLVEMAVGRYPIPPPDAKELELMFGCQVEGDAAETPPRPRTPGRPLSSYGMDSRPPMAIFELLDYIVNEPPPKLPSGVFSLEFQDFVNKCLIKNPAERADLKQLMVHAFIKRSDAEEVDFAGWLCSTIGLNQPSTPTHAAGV
# [2] = target: T1, von Hippel-Lindau disease tumor suppressor/Dual specificity mitogen-activated protein kinase kinase 2/Dual specificity mitogen-activated protein kinase kinase 1 (Homo sapiens); assay: Protac activity against VHL/MEK1/2 in human SK-MEL-28 cells harboring with BRAF V600E variant assessed as phosphorylation of ERK at T202/Y204 residues at 0.3 uM pretreated with proteasome inhibitor, MG-132 for 2 hrs followed by incubation with compound for 10 hrs by Western blot analysis; type: cell-based
# [3] = target: T1, von Hippel-Lindau disease tumor suppressor/Dual specificity mitogen-activated protein kinase kinase 2/Dual specificity mitogen-activated protein kinase kinase 1 (Homo sapiens); assay: Protac activity against VHL/MEK1/2 in human HT-29 cells harboring with BRAF V600E variant assessed as phosphorylation of ERK at T202/Y204 residues at 0.3 uM pretreated with VHL ligand, VH 032 for 2 hrs followed by incubation with compound for 10 hrs by Western blot analysis; type: cell-based
# [4] = target: T1, von Hippel-Lindau disease tumor suppressor/Dual specificity mitogen-activated protein kinase kinase 2/Dual specificity mitogen-activated protein kinase kinase 1 (Homo sapiens); assay: Protac activity against VHL/MEK1/2 in human SK-MEL-28 cells harboring with BRAF V600E variant assessed as reduction in phosphorylation of ERK at T202/Y204 residues after 24 hrs by Western blot analysis; type: cell-based
# [5] = target: T2, von Hippel-Lindau disease tumor suppressor/Dual specificity mitogen-activated protein kinase kinase 2 (Homo sapiens) (UniProt P36507+P40337); assay: Protac activity against VHL/MEK2 in human UACC257 cells harboring with BRAF V600E variant assessed as degradation of MEK2 at 3 to 5 uM after 24 hrs by Western blot analysis; type: cell-based
# T2 sequence (P36507 whole entry, looked up): as the sequence (P36507 whole entry, looked up) above
# T2 sequence (P40337 whole entry, looked up): as the sequence (P40337 whole entry, looked up) above
# [6] = target: T1, von Hippel-Lindau disease tumor suppressor/Dual specificity mitogen-activated protein kinase kinase 2/Dual specificity mitogen-activated protein kinase kinase 1 (Homo sapiens); assay: Protac activity against VHL/MEK1/2 in human HT-29 cells harboring with BRAF V600E variant assessed as reduction in phosphorylation of MEK at S218/222 residues at 0.3 uM incubated for 6 days by Western blot analysis; type: cell-based
# [7] = target: T3, von Hippel-Lindau disease tumor suppressor/Dual specificity mitogen-activated protein kinase kinase 1 (Homo sapiens) (UniProt Q02750+P40337); assay: Protac activity against VHL/MEK1 in human SK-MEL-28 cells harboring with BRAF V600E variant assessed as degradation of MEK1 by measuring MEK1 protein level at 0.3 uM pretreated with MEK1/2 inhibitor, PD0325901 for 2 hrs followed by incubation with compound for 10 hrs by Western blot analysis; type: cell-based
# T3 sequence (P40337 whole entry, looked up): as above
# T3 sequence (Q02750 whole entry, looked up): as the sequence (Q02750 whole entry, looked up) above
# [8] = Ratio of Plasma concentration in Swiss albino mouse at 50 mg/kg, ip measured after 8 hrs to GI50 for antiproliferative activity against human COLO205 cells; type: organism-based; settings: in vivo
# [9] = target: Dual specificity mitogen-activated protein kinase kinase 2 (Homo sapiens, UniProt P36507); assay: Inhibition of recombinant full length human His-tagged MEK2 expressed in baculovirus expression system using ERK K52R dead variant as substrate preincubated for 20 mins followed by incubation with 33P-ATP for 2 hrs by hotspot kinase assay
# Chain of Dual specificity mitogen-activated protein kinase kinase 2 (P36507 whole entry): as the sequence (P36507 whole entry, looked up) above
# [10] = target: T3, von Hippel-Lindau disease tumor suppressor/Dual specificity mitogen-activated protein kinase kinase 1 (Homo sapiens); assay: Protac activity against VHL/MEK1 in human HT-29 cells harboring with BRAF V600E variant assessed as degradation of MEK1 by measuring reduction in MEK1 protein level at 0.5 uM after 24 hrs by Western blot analysis relative to control; type: cell-based; design: scale not given: the % may be the effect or the level left
# COLO 205 [11] = assay: Antiproliferative activity against human COLO205 cells assessed as reduction in cell growth after 3 days by WST8 assay; type: functional
# COLO 205 [12] = assay: Effect on total ERK protein expression in human COLO205 cells at 0.001 to 5 uM after 24 hrs by Western blot analysis; type: functional, cell-based
# [13] = target: T2, von Hippel-Lindau disease tumor suppressor/Dual specificity mitogen-activated protein kinase kinase 2 (Homo sapiens); assay: Protac activity against VHL/MEK2 in human SK-MEL-28 cells harboring with BRAF V600E variant assessed as degradation of MEK2 by measuring reduction in MEK2 protein level at 0.3 uM after 24 hrs by Western blot analysis relative to control; type: cell-based; design: scale not given: the % may be the effect or the level left
# HT-29 = assay: Inhibition of colony formation in human HT-29 cells at 10 to 100 nM supplemented with fresh medium containing compound every 3 days for 14 days by crystal violet staining based assay; type: functional, cell-based
# [14] = target: T1, von Hippel-Lindau disease tumor suppressor/Dual specificity mitogen-activated protein kinase kinase 2/Dual specificity mitogen-activated protein kinase kinase 1 (Homo sapiens); assay: Protac activity against VHL/MEK1/2 in human SK-MEL-28 cells harboring with BRAF V600E variant assessed as reduction in phosphorylation of ERK at T202/Y204 residues at 0.1 to 0.3 uM by Western blot analysis; type: cell-based; settings: TDE = time-dependent effect
# [15] = target: T1, von Hippel-Lindau disease tumor suppressor/Dual specificity mitogen-activated protein kinase kinase 2/Dual specificity mitogen-activated protein kinase kinase 1 (Homo sapiens); assay: Protac activity against VHL/MEK1/2 in human HT-29 cells harboring with BRAF V600E variant assessed as reduction in phosphorylation of ERK at T202/Y204 residues at 0.3 uM after 24 to 144 hrs by Western blot analysis; type: cell-based
# [16] = target: T1, von Hippel-Lindau disease tumor suppressor/Dual specificity mitogen-activated protein kinase kinase 2/Dual specificity mitogen-activated protein kinase kinase 1 (Homo sapiens); assay: Protac activity against VHL/MEK1/2 in human SK-MEL-28 cells harboring with BRAF V600E variant assessed as phosphorylation of MEK at S218/222 residues at 0.3 uM pretreated with proteasome inhibitor, MG-132 for 2 hrs followed by incubation with compound for 10 hrs by Western blot analysis; type: cell-based
# [17] = target: T3, von Hippel-Lindau disease tumor suppressor/Dual specificity mitogen-activated protein kinase kinase 1 (Homo sapiens); assay: Protac activity against VHL/MEK1 in human HT-29 cells harboring with BRAF V600E variant assessed as degradation of MEK1 by measuring MEK1 protein level at 0.3 uM pretreated with MEK1/2 inhibitor, PD0325901 for 2 hrs followed by incubation with compound for 10 hrs by Western blot analysis; type: cell-based
# [18] = target: T1, von Hippel-Lindau disease tumor suppressor/Dual specificity mitogen-activated protein kinase kinase 2/Dual specificity mitogen-activated protein kinase kinase 1 (Homo sapiens); assay: Protac activity against VHL/MEK1/2 in human SK-MEL-28 cells harboring with BRAF V600E variant assessed as phosphorylation of ERK at T202/Y204 residues at 0.3 uM pretreated with VHL ligand, VH 032 for 2 hrs followed by incubation with compound for 10 hrs by Western blot analysis; type: cell-based
# [19] = target: Dual specificity mitogen-activated protein kinase kinase 1 (Homo sapiens, UniProt Q02750); assay: Inhibition of recombinant full length human His-tagged MEK1 expressed in baculovirus expression system using ERK K52R dead variant as substrate preincubated for 20 mins followed by incubation with 33P-ATP addition for 2 hrs by hotspot kinase assay
# Chain of Dual specificity mitogen-activated protein kinase kinase 1 (Q02750 whole entry): as the sequence (Q02750 whole entry, looked up) above
# [20] = target: T1, von Hippel-Lindau disease tumor suppressor/Dual specificity mitogen-activated protein kinase kinase 2/Dual specificity mitogen-activated protein kinase kinase 1 (Homo sapiens); assay: Protac activity against VHL/MEK1/2 in human SK-MEL-28 cells harboring with BRAF V600E variant assessed as reduction in phosphorylation of MEK at S218/222 residues at 0.1 to 0.3 after >= 2 hrs by Western blot analysis; type: cell-based
# [21] = target: T2, von Hippel-Lindau disease tumor suppressor/Dual specificity mitogen-activated protein kinase kinase 2 (Homo sapiens); assay: (§1) Protac activity against VHL/MEK2 in human HT-29 cells harboring BRAF V600E variant assessed as degradation of MEK2 after 24 hrs by Western blot analysis; type: cell-based
# [22] = target: von Hippel-Lindau disease tumor suppressor/Dual specificity mitogen-activated protein kinase kinase 2 (Homo sapiens, UniProt P36507+P40337, V600E); assay: as §1; type: cell-based
# Chain of von Hippel-Lindau disease tumor suppressor/Dual specificity mitogen-activated protein kinase kinase 2 (P36507 whole entry, looked up, stated change not applied): as the sequence (P36507 whole entry, looked up) above
# Chain of von Hippel-Lindau disease tumor suppressor/Dual specificity mitogen-activated protein kinase kinase 2 (P40337 whole entry, looked up, stated change not applied): as the sequence (P40337 whole entry, looked up) above
# [23] = target: T3, von Hippel-Lindau disease tumor suppressor/Dual specificity mitogen-activated protein kinase kinase 1 (Homo sapiens); assay: Protac activity against VHL/MEK1 in human SK-MEL-28 cells harboring with BRAF V600E variant assessed as degradation of MEK1 by measuring reduction in MEK1 protein level at 0.1 to 0.3 uM after 2 hrs by Western blot analysis; type: cell-based
# [24] = target: T3, von Hippel-Lindau disease tumor suppressor/Dual specificity mitogen-activated protein kinase kinase 1 (Homo sapiens); assay: Protac activity against VHL/MEK1 in human SK-MEL-28 cells harboring with BRAF V600E variant assessed as degradation of MEK1 by measuring reduction in MEK1 protein level at 0.3 uM after 24 hrs by Western blot analysis relative to control; type: cell-based; design: scale not given: the % may be the effect or the level left
smiles,measurement,setting,value
Cc1ncsc1-c1ccc([C@H](C)NC(=O)[C@@H]2C[C@@H](O)CN2C(=O)[C@@H](NC(=O)CCCCCCCCCCNCCCONC(=O)c2ccc(F)c(F)c2Nc2ccc(I)cc2F)C(C)(C)C)cc1,Activity,[1],Dose-dependent effect
same,Activity,[2],inactive
same,Activity,[3],inactive
same,Activity,[4],Dose-dependent effect
same,Activity,[5],Active
same,Activity,[6],Active
same,Activity,[7],inactive
same,Ratio,[8],3 to 20
same,IC50,[9],590 nM
same,Activity,[10],> 80%
same,growth inhibition (GI),COLO 205 [11],Dose-dependent effect
same,GI50,"COLO 205 [11]; COLO 205, 72 h",30 to 200 nM
same,Activity,COLO 205 [12],inactive
same,Activity,[13],> 90%
same,inhibition,HT-29,Active
same,Activity,[14],Tde
same,Activity,[15],Active
same,Activity,[16],inactive
same,Activity,[17],inactive
same,Activity,[18],inactive
same,IC50,[19],1500 nM
same,Activity,[20],Active
same,Activity,[21],Dose-dependent effect
same,DC50,[22],17 nM
same,Activity,[23],Active
same,Activity,[24],> 90%
